Data on eight compounds can be found in ChEMBL document CHEMBL1201862, “PubChem BioAssay data set” (2004).

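Cultured in 96-well plates, cells were exposed to test compound for 48 hours across five concentrations. GI50 marks 50% less growth.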 Active and inactive are the calls of the source. Cut-off read from the data, not from the text of the source: active = GI50 up to about 1.1 µM and inactive = higher.

Holding throughout (experiment): growth of human tumour cells (NCI), 48 h
For assay [1], the system named is HCT-15.
The subject of assay [2] is RXF 393.
For assay [3], the system named is T47D.
For assay [4], the system named is SF-539.
The subject of assay [5] is A549.
For assay [6], the system named is IGROV-1.
The test system of assay [7] is COLO 205.
Assay [8] deals with BT-549.
In assay [9] the test system is SK-OV-3.
For assay [10], the system named is SN12C.
The test system of assay [11] is MCF7.
Assay [12] deals with UACC-62.
Assay [13] relates to CCRF-CEM.
Assay [14] concerns 786-0.
Assay [15] concerns DU-145.
In assay [16] the test system is SK-MEL-28.
Assay [17] has as its system Malme-3M.
Assay [18] has as its system RPMI-8226.
In assay [19] the test system is U-251.
Assay [20] has as its system TK-10.

As to `CCC(=O)Nc1ccc(NCC(=O)Nc2ccc(Cl)cc2)cc1`, the GI50 in assay [1] was 14.4 µM; in assay [2] it was 16.5 µM (inactive); in [3] it was 12.8 µM (inactive); in assay [4], 18.1 µM (inactive); in assay [5], 19.7 µM (inactive); in assay [6] it was 18.4 µM (inactive). In addition, the GI50 in [7] is 16.9 µM (inactive); in assay [8], 21.9 µM (inactive); in assay [9] it was 16.9 µM (inactive); in assay [10], 17.1 µM (inactive); in assay [11] it was 14.3 µM (inactive); in [12], 12.4 µM (inactive). Moreover, the GI50 is 12.5 µM (inactive) in assay [13]; 17.2 µM (inactive) in assay [14]; 17.9 µM (inactive) in assay [15]; 19.9 µM (inactive) in [16]; 19.7 µM (inactive) in assay [17]; 21.2 µM (inactive) in assay [18].
With `O=c1[nH]c(=O)n(C2OC(CO)C(O)C2O)c2ncc(-c3ccc(-c4ccccc4)cc3)nc12` (stereo unspecified), the GI50 in assay [1] was above 20 µM; in assay [2], > 20 µM (inactive); in assay [3], > 20 µM (inactive); in assay [4], > 20 µM (inactive); in [5], > 20 µM (inactive); in assay [6] it was > 20 µM (inactive). For the same compound, the GI50 in [7], in [8], in assay [9], in assay [10], in assay [11] and in assay [12] was > 20 µM (inactive) each time. For the same compound, the GI50 in [19], in assay [20], in assay [13], in assay [14], in assay [15] and in [17] was > 20 µM (inactive) each time. In addition, the GI50 in [18] is > 20 µM (inactive).
For `CC(C)C[C@H](NC(=O)CCc1cccc2ccccc12)B(O)O`, the GI50 in [1] is 1.26 µM; in assay [2], 0.54 µM (active); in [3], 1.25 µM (inactive); in assay [4], 0.333 µM (active); in assay [5], 4.74 µM (inactive); in [6], 2.13 µM (inactive). For the same compound, the GI50 in [7] is 4.59 µM (inactive); in [8], 0.506 µM (active); in [9] it was 8.73 µM (inactive); in assay [10], 2.19 µM (inactive); in assay [11], 0.56 µM (active); in assay [12], 1.3 µM (inactive). Moreover, the GI50 is 1.7 µM (inactive) in assay [19]; 0.578 µM (active) in assay [20]; 0.923 µM (active) in assay [14]; 4.62 µM (inactive) in assay [15]; 0.716 µM (active) in [16]; 0.871 µM (active) in assay [17]. The GI50 in assay [18] was 0.331 µM (active).
With `COC(=O)c1ccccc1/C=C1\Cc2c(C)c3c(c(C)c2C1=O)CCC3`, the GI50 in [1] was above 100 µM; in [2], > 100 µM (inactive); in [3], > 100 µM (inactive); in assay [4], 88.9 µM (inactive); in [5] it was > 100 µM (inactive); in assay [6], > 100 µM (inactive). Moreover, the GI50 in assay [7] was > 100 µM (inactive); in assay [8], > 100 µM (inactive); in assay [10], > 100 µM (inactive); in assay [11], > 100 µM (inactive); in assay [12], > 100 µM (inactive); in assay [19], 37.8 µM (inactive). Moreover, the GI50 in assay [20] is > 100 µM (inactive); in [13], > 100 µM (inactive); in assay [14] it was 46.6 µM (inactive); in assay [15], > 100 µM (inactive); in assay [16], > 100 µM (inactive); in [17], > 100 µM (inactive). For the same compound, the GI50 in assay [18] was > 100 µM (inactive).
On to `[O-]/[N+](=N\c1ccccc1CO)c1ccccc1CO`, for which the GI50 in assay [1] was above 100 µM; in assay [2] it was > 100 µM (inactive); in assay [3] it was > 100 µM (inactive); in assay [4] it was > 100 µM (inactive); in [5] it was > 100 µM (inactive); in assay [7], > 100 µM (inactive). In addition, the GI50 in assay [8], in assay [9], in assay [10], in assay [11], in assay [12] and in [19] was > 100 µM (inactive) each time. Also, the GI50 in assay [20], in assay [13], in assay [14], in [15], in assay [16] and in assay [17] was > 100 µM (inactive) throughout. Besides, the GI50 in assay [18] is > 100 µM (inactive).
In the case of `CC1OC(OC2C(O)COC(OC3C(C)OC(OC4C(OC(=O)[C@]56CCC(C)(C)C[C@@H]5C5=CCC7[C@@]8(C)C[C@H](O)[C@H](OC9OC(CO)C(O)C(OC%10OC(CO)C(O)C(O)C%10O)C9O)[C@@](C)(CO)[C@@H]8CC[C@@]7(C)[C@]5(C)CC6)OCC(O)C4O)C(O)C3OC3OCC(O)(CO)C3O)C2O)C(O)C(O)C1O` (stereo partly specified), the GI50 in [1] was 7.71 µM; in [2], 7.67 µM (inactive); in assay [3], 6.92 µM (inactive); in assay [4] it was 8.83 µM (inactive); in assay [5], 6.61 µM (inactive); in [7], 6.31 µM (inactive). The GI50 in assay [8] is 5.19 µM (inactive); in assay [9] it was 9.29 µM (inactive); in assay [10], 3.66 µM (inactive); in assay [11], 12.4 µM (inactive); in [12], 12.9 µM (inactive); in assay [19], 10.4 µM (inactive). For the same compound, the GI50 is 9.79 µM (inactive) in assay [20]; 6.14 µM (inactive) in assay [13]; 8.09 µM (inactive) in assay [14]; 8.28 µM (inactive) in assay [15]; 6.24 µM (inactive) in [16]; 5 µM (inactive) in assay [17]. Further, the GI50 in [18] was 13.6 µM (inactive).
On to `CC(=O)C(C(=O)C(C)(C)C)C(=O)C(C)(C)C`, for which the GI50 is above 100 µM in assay [1]; > 100 µM (inactive) in assay [2]; > 100 µM (inactive) in assay [3]; > 100 µM (inactive) in [4]; > 100 µM (inactive) in [5]; > 100 µM (inactive) in assay [7]. Moreover, the GI50 in assay [8], in assay [9], in assay [10], in [11], in assay [12] and in assay [19] was > 100 µM (inactive) each time. The GI50 in assay [20], in [13], in assay [14], in assay [15], in assay [16] and in assay [17] was > 100 µM (inactive) throughout. In addition, the GI50 in assay [18] was > 100 µM (inactive).
Take `O=[Se](O)O`: the GI50 in assay [1] was 3.15 µM; in assay [2] it was 3.76 µM (inactive); in assay [3], > 40 µM (inactive); in assay [4], 0.912 µM (active); in [5], 1.15 µM (inactive); in assay [6], 0.826 µM (active). The GI50 in assay [7] was > 30.7 µM (inactive); in assay [8], 4.9 µM (inactive); in [9] it was 0.984 µM (active); in [10], 1.24 µM (inactive); in assay [11], 9.75 µM (inactive); in assay [12], 1.32 µM (inactive). Further, the GI50 in [19] is 0.815 µM (active); in [20], 6.67 µM (inactive); in [14] it was 2.47 µM (inactive); in [15], 1.47 µM (inactive); in [16] it was 3.27 µM (inactive); in assay [17], 31.7 µM (inactive). Moreover, the GI50 in assay [18] is 3.29 µM (inactive).
